Test results: the NIST ThermoML archive (doi:10.1021/acs.jced.8b00681)

Assay: mn = molality of the nth substance listed, in mol/kg
Details: 100 kPa, Liquid, Frequency=2 MHz, Linear variable-path acoustic interferometer

OC[C@H]1OC(O)C[C@@H](O)[C@@H]1O (stereo partly drawn) [2-deoxy-D-glucose] + O
speed of sound [m/s]
Details	m1 = 0.04452	m1 = 0.06258	m1 = 0.08916	m1 = 0.09804	m1 = 0.1031	m1 = 0.1275
288.15 K	1468.5	1469.6	1471.1	1471.6	1471.9	1473.2
298.15 K	1499.2	1500.1	1501.4	1501.9	1502.1	1503.3
308.15 K	1522.1	1523	1524.3	1524.7	1524.9	1526.1
318.15 K	1538.2	1539	1540.1	1540.5	1540.7	1541.6

O=C[C@H](O)[C@@H](O)[C@H](O)[C@H](O)CO [D-glucose] + O
speed of sound [m/s]
Details	m1 = 0.054	m1 = 0.07085	m1 = 0.09905	m1 = 0.1196	m1 = 0.1221	m1 = 0.1388
288.15 K	–	1470.8	1472.7	1474.2	1474.3	1475.5
298.15 K	–	1501.1	1502.9	1504.2	1504.3	1505.3
308.15 K	1523.1	1524.7	1527.4	1529.3	1529.5	1531.1
318.15 K	–	1540.7	1543.2	1545	1545.2	1546.6

OC[C@H]1O[C@H](OC[C@H]2O[C@H](O[C@]3(CO)O[C@H](CO)[C@@H](O)[C@@H]3O)[C@H](O)[C@@H](O)[C@@H]2O)[C@H](O)[C@@H](O)[C@H]1O [D-raffinose] + O
speed of sound [m/s]
Details	m1 = 0.05849	m1 = 0.0723	m1 = 0.087	m1 = 0.1083	m1 = 0.1225	m1 = 0.143
288.15 K	1478.1	1481	1484.1	1488.6	1491.6	1496
298.15 K	1509	1512	1515.1	1519.7	1522.7	1527.1
308.15 K	1531.9	1534.8	1537.9	1542.3	1545.3	1549.7
318.15 K	1548.3	1551.1	1554.1	1558.5	1561.5	1565.8

O=C[C@H](O)[C@H](O)[C@H](O)CO [D-ribose] + O
speed of sound [m/s]
Details	m1 = 0.04514	m1 = 0.06075	m1 = 0.08352	m1 = 0.112	m1 = 0.1348	m1 = 0.1523
288.15 K	1468.7	1469.7	1471.1	1472.9	1474.3	1475.4
298.15 K	1499.1	1499.9	1501	1502.5	1503.6	1504.5
308.15 K	1522	1522.7	1523.7	1525.1	1526.1	1526.9
318.15 K	1538.3	1538.9	1539.9	1541	1542	1542.8

N.O=P(O)(O)O [ammonium dihydrogen phosphate] + O
speed of sound [m/s]
Details	288.15 K	298.15 K	308.15 K	318.15 K
m1 = 0.5	1506.4	1534.2	1555.1	1570.8
m1 = 1	1554.5	1579.6	1598.1	1610.2
m1 = 1.5	1609.2	1629.9	1645.1	1654.4
m1 = 2	1672.6	1686.2	1697.2	1703.1

CO[C@H]1O[C@H](CO)[C@@H](O)[C@H](O)[C@H]1O [methyl-α-D-glucopyranoside] + O
speed of sound [m/s]
Details	m1 = 0.05678	m1 = 0.06847	m1 = 0.08732	m1 = 0.1192	m1 = 0.1293	m1 = 0.1466
288.15 K	1470.7	1471.7	1473.2	1475.8	1476.6	1478
298.15 K	1501.2	1502	1503.5	1506	1506.7	1508
308.15 K	1524	1524.9	1526.3	1528.6	1529.4	1530.6
318.15 K	1540.5	1541.3	1542.7	1545	1545.7	1546.9

O=P([O-])(O)O.[Na+] [sodium dihydrogen phosphate] + O
speed of sound [m/s]
Details	288.15 K	298.15 K	308.15 K	318.15 K
m1 = 0.5	1516.7	1547.3	1567.5	1582.6
m1 = 1	1563.2	1598	1618.9	1638.8
m1 = 1.5	1607.3	1649	1675	1704.8
m1 = 2	1649.2	1700.3	1735.7	1782.8

O=P([O-])([O-])[O-].[K+].[K+].[K+] [tripotassium phosphate] + O
speed of sound [m/s]
Details	288.15 K	298.15 K	308.15 K	318.15 K
m1 = 0.5	1586.2	1598.1	1609.9	1622.6
m1 = 1	1693.5	1698.6	1704.1	1708
m1 = 1.5	1789.2	1791.8	1793.8	1796
m1 = 2	1878.3	1882.5	1885.8	1889.4
